Values quoted from earlier work as cited in US20100119624A1, “BENZISOXAZOLE MODULATORS OF D2 RECEPTOR AND/OR 5-HT2A RECEPTOR” (AUSPEX PHARMACEUTICALS, INC., priority 2008, published 2010).

Legend:
prolactin = conditions: in vivo
[1] = in vivo
[2] = coadministration of nafzodone, a competitive CYP3A inhibitor

SMILES | levels of prolactin (prolactin) | half-life [1] | decrease in risperidone clearance [2] [%]
Cc1nc2n(c(=O)c1CCN1CCC(c3noc4cc(F)ccc34)CC1)CCCC2O (stereo not drawn) [9-Hydroxyrisperidone] | elevation in the levels of prolactin | – | –
Cc1nc2n(c(=O)c1CCN1CCC(c3noc4cc(F)ccc34)CC1)CCCC2 [Risperidone, 4-[2-[4-(6-fluorobenzo[d]isoxazol-3-yl)-1-piperidyl]ethyl]-3-methyl-2,6-diazabicyclo[4.4.0]deca-1,3-dien-5-one] | – | about 2 hours | ~50
